Measured values from patent US5162571A, “Phenol derivatives, their production and use” (Takeda Chemical Industries, Ltd., priority 1987, dated 1992).

Target: T1, 5-Lipoxygenase (Rattus norvegicus, UniProt P12527)
T1 construct: RBL-1 cells (rat basophilic leukemia cells); endogenous in cells; host or cells: RBL-1 (rat basophilic leukemia cells)
T1 sequence (P12527 1-673): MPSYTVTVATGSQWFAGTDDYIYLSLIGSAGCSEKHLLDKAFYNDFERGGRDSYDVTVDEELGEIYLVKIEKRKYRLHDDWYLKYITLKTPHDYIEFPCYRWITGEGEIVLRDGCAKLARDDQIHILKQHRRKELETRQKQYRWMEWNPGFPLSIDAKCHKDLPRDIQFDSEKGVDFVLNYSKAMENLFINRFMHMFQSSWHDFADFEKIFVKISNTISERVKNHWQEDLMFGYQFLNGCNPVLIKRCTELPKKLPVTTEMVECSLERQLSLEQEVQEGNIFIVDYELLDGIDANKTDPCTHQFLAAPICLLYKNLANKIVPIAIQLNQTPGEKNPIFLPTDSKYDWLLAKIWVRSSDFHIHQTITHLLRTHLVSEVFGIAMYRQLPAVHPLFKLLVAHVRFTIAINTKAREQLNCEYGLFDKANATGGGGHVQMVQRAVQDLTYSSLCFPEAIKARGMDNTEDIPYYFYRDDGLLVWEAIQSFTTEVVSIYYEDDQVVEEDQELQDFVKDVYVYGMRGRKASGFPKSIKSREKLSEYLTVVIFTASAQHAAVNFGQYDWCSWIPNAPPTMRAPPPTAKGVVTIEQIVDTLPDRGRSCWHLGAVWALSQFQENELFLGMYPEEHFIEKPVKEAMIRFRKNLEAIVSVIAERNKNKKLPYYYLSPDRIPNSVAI
Test: 5-Lipoxygenase inhibitory activity (5-HETE production in RBL-1 cells)
Type: cell-based
Conditions: read-out: Inhibitory effect on 5-HETE production (%)
Experimental: 5-Lipoxygenase inhibitory activity
Method: 10^7 RBL-1 cells (rat basophilic leukemia cells) were suspended in 0.5 ml of MCM (mast cell medium), and test solutions (made up of 0.5 ml of MCM, 50 μg of arachidonic acid, 10 μg of A-23187 (calcium ionophore) and 1 μM, 0.01 μM and 0.001 μM as the final concentration of the phenol compound, respectively) prepared previously were added respectively to the suspension, followed by reaction at 37° C. for 20 minutes. After the conclusion of the reaction, 4 ml of ethanol and 1,4-dimethoxy-2-methyl-3-(3-methoxypropyl)naphthalene as the internal reference drug were added to the reaction solution, and the mixture was shaken thoroughly and allowed to stand at room temperature for 10 minutes. Then, it was centrifuged (2000 r.p.m.) for 10 minutes, and the supernatant fluid was separated and concentrated to dryness under reduced pressure. 0.5 ml of 60% aqueous methanol was added to the concentrate, and 100 μl of the resulting solution was taken and subjected to high-performance liquid chromatography to determine the amount of 5-HETE (5-hydroxy-eicosatetraenoic acid). Determination of 5-HETE was made through measurement of an absorption at 237 nm with a UV absorption monitor.
The 5-HETE production inhibitory effect (IE) was expressed by [formula] wherein a is a peak height or peak area corrected by the peak for the internal reference when the phenol compound is not contained; b is a peak height or peak area corrected by the peak for the internal reference when the phenol compound is contained.

inhibition at 10 µM (10^-5 M): 96%
inhibition at 1 µM (10^-6 M): 22%
Structure (SMILES): Cc1c(C)c(Br)c(C)c(C(CCCCCC(=O)O)c2ccc(F)cc2)c1O (centres unmarked) [Compound 12, 7-(5-bromo-2-hydroxy-3,4,6-trimethylphenyl)-7-(4-fluorophenyl)heptanoic acid]
